Laboratory results as given in US20020052370A1, “Cyclopentyl-substituted glutaramide derivatives as inhibitors of neutral endopeptidase” (priority 2000, published 2002).

Experiments:
[1] = tested on: vaginal and clitoral blood flow; experiment: Anaesthetised rabbit model of sexual arousal: pelvic nerve stimulated genital blood flow by laser Doppler; format: in vivo, Female New Zealand rabbits
From the text: Animal Model of arousal response
We have developed an animal model that mimics the physiological arousal response observed during female sexual arousal and directly reflects the clinical data obtained in human volunteers. The model uses Laser Doppler technologies to record small changes in vaginal and clitoral blood flow induced by pelvic nerve stimulation or vasoactive neurotransmitters. During sexual arousal there is an increase in genital blood flow resulting from increased innervation from the pelvic nerve. This increase in genital blood flow leads to increased genital lubribriation and genital sensitivity which are associated with sexual arousal. The major cause of FSAD is decreased genital blood flow and this manifests itself as reduced vaginal, labial and clitoral engorgement. Treatment of women with FSAD is achievable by restoration of the normal sexual arousal response. This can be achieved by enhancing genital blood flow.
The title product from Example 29 was administered using this animal model according to the following protocol to show an enhancement in pelvic nerve stimulated increases in genital blood flow in the rabbit.
Two routes of administration were studied: a) intravenous administration and b) topical administration. Both studies used the anesthatised rabbit model according to the following protocol.
Female New Zealand rabbits (˜2.5 kg) were pre-medicated with a combination of Medetomidine (Domitor®) 0.5 ml/kg i.m., and Ketamine (Vetalar®) 0.25 ml/kg i.m. whilst maintaining oxygen intake via a face mask. The rabbits were tracheotomised using a Portex™ uncuffed endotracheal tube 3 ID, connected to ventilator and maintained a ventilation rate of 30-40 breaths per minute, with an approximate tidal volume of 18-20 ml, and a maximum airway pressure of 10 cm H2O. Anaesthesia was then switched to Isoflurane and ventilation continued with O2 at 2 l/min. The right marginal ear vein was cannulated using a 23 G or 24 G catheter, and Lactated Ringer solution perfused at 0.5 ml/min. The rabbit was maintained at 3% Isoflurane during invasive surgery, dropping to 2% for maintenance anaesthesia.
A ventral midline incision was made into the abdominal cavity. The incision was about 5 cm in length just above the pubis. The fat and muscle was bluntly dissected away to reveal the hypogastric nerve which runs down the body cavity. It was essential to keep close to the side curve of the pubis wall in order to avoid damaging the femoral vein and artery which lie above the pubis. The sciatic and pelvic nerves lie deeper and were located after further dissection on the dorsal side of the rabbit. Once the sciatic nerve is identified, the pelvic nerve was easily located. The term pelvic nerve is loosely applied; anatomy books on the subject fail to identify the nerves in sufficient detail. However, stimulation of the nerve causes an increase in vaginal and clitoral blood flow, and innervation of the pelvic region. The pelvic nerve was freed away from surrounding tissue and a Harvard bipolar stimulating electrode was placed around the nerve. The nerve was slightly lifted to give some tension, then the electrode was secured in position. Approximately 1 ml of light paraffin oil was placed around the nerve and electrode. […]
A frequency response curve was determined at the start of each experiment in order to determine the optimum frequency to use as a sub-maximal response, normally 4 Hz. […]

[2] = 1.0 mg/kg iv bolus infusion, submaximal stimulation (eg 4 Hz), anaesthetised rabbit, n=3

Compound	melting point	increase in clitoral blood flow (peak, pelvic nerve stimulated) [1, 2]	increase in vaginal blood flow (peak, pelvic nerve stimulated) [1, 2]	pelvic nerve stimulated increases in genital blood flow ([1]; both intravenous and topical administration, clinically relevant doses, rabbit)	peak pelvic nerve stimulated increase in vaginal blood flow ([1]; intravaginal topical application (0.2 mg/ml printed), vs mean control flow increases, n=4, P<0.001)	basal (non-stimulated) vaginal blood flow ([1]; intravaginal topical application, compared to control flow, n=4)
O=C(O)C(CCc1ccccc1)CC1(C(=O)Nc2cccnc2)CCCC1 (stereo not drawn) [Example 41, 4-Phenyl-2-({1-[(3-pyridinylamino)carbonyl]cyclopentyl}methyl)butanoic acid]	80 to 85 °C	–	–	–	–	–
CCC[C@H](CC1(C(=O)Nc2nnc(CC)s2)CCCC1)C(=O)O [Example 29, (2R)-2-[(1-{[(5-Ethyl-1,3,4-thiadiazol-2-yl)amino]carbonyl}cyclopentyl)methyl]pentanoic acid]	–	131%	92%	significantly enhanced	significantly enhanced	no effect
